Measurements published in PubChem BioAssay AID248 (DTP/NCI, 2004).
Where “and” joins values, the source holds several entries; their conditions need not be identical. Equal values may be shown once. Inconclusive results and toxic doses are left out. No stated cut-off is given here; in the data, active means T/C of 150% or more; inactive means T/C below 125%.

Test system: L1210 leukemia ip in BDF1 mice, survival T/C
Experiment: NCI In Vivo Anticancer Drug Screen. Data for tumor model L1210 Leukemia (intraperitoneal) in B6D2F1 (BDF1) mice
Conditions: endpoint: mean survival time, higher = longer survival
In short: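 Antitumor effect is assessed in tumor-bearing animals. Survival in the compound arm is compared with a vehicle-dosed control arm and expressed as their quotient.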

Measured: T/C

CC/C(=C(\CC)c1ccc(OC)cc1)c1ccc(O)cc1
inactive: dose: 15.0 mg/kg/injection, schedule: Q01DX Z (sc), vehicle: steriod suspending solution 105 % of control | dose: 30.0 mg/kg/injection, schedule: Q01DX Z (sc), vehicle: steriod suspending solution 106 % of control | dose: 60.0 mg/kg/injection, schedule: Q01DX Z (sc), vehicle: steriod suspending solution 96 % of control and 103 % of control | dose: 90.0 mg/kg/injection, schedule: Q01DX Z (sc), vehicle: steriod suspending solution 103 % of control | dose: 135.0 mg/kg/injection, schedule: Q01DX Z (sc), vehicle: steriod suspending solution 102 % of control | dose: 200.0 mg/kg/injection, schedule: Q01DX001 (ip), vehicle: saline 96 % of control | dose: 200.0 mg/kg/injection, schedule: Q01DX Z (sc), vehicle: steriod suspending solution 100 % of control | dose: 250.0 mg/kg/injection, schedule: Q01DX015 (sc), vehicle: steriod suspending solution 97 % of control | dose: 400.0 mg/kg/injection, schedule: Q01DX001 (ip), vehicle: saline 104 % of control | dose: 500.0 mg/kg/injection, schedule: Q01DX015 (sc), vehicle: steriod suspending solution 93 % of control | dose: 750.0 mg/kg/injection, schedule: Q01DX015 (sc), vehicle: steriod suspending solution 95 % of control | dose: 800.0 mg/kg/injection, schedule: Q01DX001 (ip), vehicle: saline 98 % of control | dose: 1000.0 mg/kg/injection, schedule: Q01DX015 (sc), vehicle: steriod suspending solution 90 % of control

O=C(O)Cn1c(=O)ccc2ccccc21
inactive: dose: 100.0 mg/kg/injection, schedule: Q04DX002 (ip), vehicle: saline with Tween-80 91 % of control | dose: 200.0 mg/kg/injection, schedule: Q04DX002 (ip), vehicle: saline with Tween-80 95 % of control | dose: 400.0 mg/kg/injection, schedule: Q04DX002 (ip), vehicle: saline with Tween-80 95 % of control

COc1ccccc1-n1c(O)c(N=Nc2ccc(Br)cc2)c(=O)n(-c2ccccc2OC)c1=S
inactive: dose: 100.0 mg/kg/injection, schedule: Q01DX001 (ip), vehicle: Klucel (hydroxypropylcellulose) (HPC) 103 % of control | dose: 200.0 mg/kg/injection, schedule: Q01DX001 (ip), vehicle: Klucel (hydroxypropylcellulose) (HPC) 105 % of control | dose: 400.0 mg/kg/injection, schedule: Q01DX001 (ip), vehicle: Klucel (hydroxypropylcellulose) (HPC) 92 % of control

CCCCCCCCCCCCC/C=N\N=C(N)N
inactive: dose: 15.0 mg/kg/injection, schedule: Q01DX Z (ip), vehicle: saline 96 % of control | dose: 30.0 mg/kg/injection, schedule: Q01DX Z (ip), vehicle: saline 89 % of control | dose: 60.0 mg/kg/injection, schedule: Q01DX Z (ip), vehicle: saline 89 % of control | dose: 60.0 mg/kg/injection, schedule: Q01DX Z (oral), vehicle: saline 98 % of control | dose: 120.0 mg/kg/injection, schedule: Q01DX Z (ip), vehicle: saline 96 % of control | dose: 120.0 mg/kg/injection, schedule: Q01DX Z (oral), vehicle: saline 101 % of control | dose: 240.0 mg/kg/injection, schedule: Q01DX Z (oral), vehicle: saline 101 % of control | dose: 480.0 mg/kg/injection, schedule: Q01DX Z (oral), vehicle: saline 98 % of control

COc1ccccc1C(=O)N/N=C/c1ccccc1Cl
inactive: dose: 25.0 mg/kg/injection, schedule: Q01DX009 (ip), vehicle: Klucel (hydroxypropylcellulose) (HPC) 96 % of control | dose: 50.0 mg/kg/injection, schedule: Q01DX009 (ip), vehicle: Klucel (hydroxypropylcellulose) (HPC) 96 % of control | dose: 100.0 mg/kg/injection, schedule: Q01DX009 (ip), vehicle: Klucel (hydroxypropylcellulose) (HPC) 104 % of control and 105 % of control | dose: 100.0 mg/kg/injection, schedule: Q04DX003 (ip), vehicle: Klucel (hydroxypropylcellulose) (HPC) 108 % of control | dose: 200.0 mg/kg/injection, schedule: Q01DX009 (ip), vehicle: Klucel (hydroxypropylcellulose) (HPC) 108 % of control | dose: 200.0 mg/kg/injection, schedule: Q04DX003 (ip), vehicle: Klucel (hydroxypropylcellulose) (HPC) 111 % of control | dose: 400.0 mg/kg/injection, schedule: Q01DX009 (ip), vehicle: Klucel (hydroxypropylcellulose) (HPC) 103 % of control | dose: 400.0 mg/kg/injection, schedule: Q04DX003 (ip), vehicle: Klucel (hydroxypropylcellulose) (HPC) 108 % of control

N=C(N)c1ccc(-n2cc3cc(C(=N)N)ccc3n2)cc1
inactive: dose: 6.25 mg/kg/injection, schedule: Q04DX003 (ip), vehicle: saline 96 % of control and 110 % of control | dose: 12.5 mg/kg/injection, schedule: Q04DX003 (ip), vehicle: saline 100 % of control | dose: 25.0 mg/kg/injection, schedule: Q04DX003 (ip), vehicle: saline 106 % of control and 91 % of control

c1ccc(C[Se]Cc2ccccc2)cc1
inactive: dose: 100.0 mg/kg/injection, schedule: Q04DX003 (ip), vehicle: other 92 % of control

COC(=O)CC/C(C)=N\NC(=O)c1ccc[n+](C)c1
inactive: dose: 50.0 mg/kg/injection, schedule: Q01DX009 (ip), vehicle: saline 100 % of control | dose: 100.0 mg/kg/injection, schedule: Q01DX009 (ip), vehicle: saline 96 % of control | dose: 200.0 mg/kg/injection, schedule: Q01DX009 (ip), vehicle: saline 93 % of control
